Measured values taken from patent publication US8049006B2, “7-membered ring compound and method of production and pharmaceutical application thereof” (Daiichi Sankyo Company, Limited, priority 2006, dated 2011).

How the values were obtained:
C3H/HeN mice = conditions: 10 mg/kg orally once a day; 24 hours after DNFB application at fifth week; female C3H/HeN mice

| melting point | Structure (SMILES) | inhibition rate of the skin reaction (C3H/HeN mice) [%] |
| --- | --- | --- |
| 150 to 153 °C | COc1ccc(F)cc1/C=C1\CNC(=O)CN(S(=O)(=O)c2ccc(Cl)s2)C1=O | – |
| 73 to 76 °C | COC(=O)C[C@@H]1C(=O)NC[C@H](Cc2cc(F)ccc2OC)C(=O)N1S(=O)(=O)c1ccc(Cl)cc1 | – |
| 141 to 142 °C | CC[C@@H](NC(=O)N1CC(=O)NCC(Cc2cc(Cl)ccc2OC)C1=O)C(=O)Nc1nnn[nH]1 (stereo partly drawn) | – |
| 132 to 134 °C | CC[C@@H](NC(=O)N1CC(=O)NCC(Cc2cc(Cl)ccc2OC)C1=O)C(=O)Nc1ccc(C)c(C(=O)O)c1 (stereo partly drawn) | – |
| 138 to 140 °C | COC(=O)COc1ccc(Cl)cc1CC1CNC(=O)CN(S(=O)(=O)c2ccc(Cl)cc2)C1=O (stereo not drawn) | – |
| 187 to 190 °C | O=C(CN1CC(Cc2ccccc2)C(=O)N(S(=O)(=O)c2ccc(Cl)cc2)CC1=O)NCc1ccccc1 (stereo not drawn) | – |
| 130 to 131 °C | COc1ccc(Cl)cc1CC1CNC(=O)CN(C(=O)Nc2cccc(NC(C)=O)c2)C1=O (stereo not drawn) | – |
| 64 to 66 °C | Cc1cccc(CC2CNC(=O)CN(S(=O)(=O)c3ccc(Cl)cc3)C2=O)c1 (stereo not drawn) | – |
| 239 °C (dec.) | N#Cc1ccc(S(=O)(=O)N2CC(=O)NC/C(=C\c3ccccc3)C2=O)cc1 | – |
| – | COc1ccc(Cl)cc1CC1CNC(=O)CN(S(=O)(=O)c2ccc(Cl)c(N)c2)C1=O.Cl (stereo not drawn) [Compound 90, 4-[(3-amino-4-chlorophenyl)sulfonyl]-6-(5-chloro-2-methoxybenzyl)-1,4-diazepan-2,5-dione Hydrochloride] | 31.0 |

| Structure (SMILES) | melting point | inhibition rate of the skin reaction (C3H/HeN mice) [%] |
| --- | --- | --- |
| CC[C@@H](NC(=O)N1CC(=O)NC[C@@H](Cc2cc(Cl)ccc2OC)C1=O)c1cccc(C(=O)[O-])c1.[Na+] | 161 to 163 °C | – |
| COc1ccc(Cl)cc1CC1CNC(=O)CN(S(=O)(=O)c2ccc(Cl)cc2)C1=O (stereo not drawn) [Compound 29, 6-(5-chloro-2-methoxybenzyl)-4-[(4-chlorophenyl)sulfonyl]-1,4-diazepan-2,5-dione] | 110 to 112 °C | 25.1 |
| CC[C@@H](NC(=O)N1CC(=O)NC[C@@H](Cc2cc(Cl)ccc2OC)C1=O)c1cccc(C(=O)O)c1 [Compound 91, 3-[(1R)-1-({[(6R)-6-(5-chloro-2-methoxybenzyl)-3,7-dioxo-1,4-diazepan-1-yl]carbonyl}amino)propyl]benzoic Acid] | 121 to 123 °C | 26.1 |
